For three compounds, IC50 results are on record in US7314870B2, “Compounds, their preparation and use” (Neurosearch A/S, priority 2001, dated 2008).

By IC50 is commonly meant the concentration at which inhibition is half-maximal.

One experiment addresses T1, serotonin transporter (Rattus norvegicus, UniProt P31652).
T1 construct: Cerebral cortices from male Wistar rats (150-200 g) are homogenized; from tissue; host or cells: rat cerebral cortex synaptosomes (P2 pellet)
Briefly: In vitro inhibition of 3H-5-hydroxytryptamine uptake in cortical synaptosomes. The class given is biochemical. The following applies: 1 nM 3H-5-HT, 30 minutes at 37° C. The protocol: In Vitro Inhibition of ^3H-5-Hydroxytyptamine Uptake in Cortical Synaptosomes
Serotonin transporters/uptake sites on nerve terminals presumably function to terminate neuronal signaling by removing serotonin from the synaptic cleft. The activity of the serotonin transporter integral protein can be measured in vitro by synaptosomal uptake of ^3H-5-hydroxytryptamine (5-HT, serotonin).
Preparations are performed at 0-4° C. Cerebral cortices from male Wistar rats (150-200 g) are homogenized for 5-10 seconds in 100 volumes of ice-cold 0.32 M sucrose containing 1 mM pargyline, using a motor driven teflon pestle in a glass homogenizing vessel. Monoamine oxidase activity is inhibited in the presence of pargyline.
The homogenate is subjected to centrifugation at 1000×g for 10 minutes. The resulting supernatant is then centrifuged at 27,000×g for 50 minutes and the supernatant is discarded. […]
Aliquots of 4.0 ml tissue suspension are added to 100 μl of test solution and 100 μl of ^3H-5-HT (1 nM, final concentration), mixed and incubated for 30 minutes at 37° C. Non-specific uptake is determined using Citalopram (1 μM, final concentration, available from Lundbeck, Denmark). […]
The amount of radioactivity on the filters is determined by conventional liquid scintillation counting. Specific uptake is calculated as the difference between total uptake and non-specific uptake. […]

For experiment [1], the target named is T2, α7-subtype of nicotinic receptors (Rattus norvegicus, UniProt Q05941).
T2 construct: Cerebral cortices from male Wistar rats (150-250 g) are homogenised; from tissue; host or cells: rat cerebral cortex membrane homogenate
Briefly: In vitro inhibition of 3H-α-bungarotoxine binding in rat brain.

Structures are written as SMILES. Where a name gives a salt, the structure may show the parent alone. Read-outs that look alike come from different tables or passages of the source.

T1 sequence (P31652 whole entry): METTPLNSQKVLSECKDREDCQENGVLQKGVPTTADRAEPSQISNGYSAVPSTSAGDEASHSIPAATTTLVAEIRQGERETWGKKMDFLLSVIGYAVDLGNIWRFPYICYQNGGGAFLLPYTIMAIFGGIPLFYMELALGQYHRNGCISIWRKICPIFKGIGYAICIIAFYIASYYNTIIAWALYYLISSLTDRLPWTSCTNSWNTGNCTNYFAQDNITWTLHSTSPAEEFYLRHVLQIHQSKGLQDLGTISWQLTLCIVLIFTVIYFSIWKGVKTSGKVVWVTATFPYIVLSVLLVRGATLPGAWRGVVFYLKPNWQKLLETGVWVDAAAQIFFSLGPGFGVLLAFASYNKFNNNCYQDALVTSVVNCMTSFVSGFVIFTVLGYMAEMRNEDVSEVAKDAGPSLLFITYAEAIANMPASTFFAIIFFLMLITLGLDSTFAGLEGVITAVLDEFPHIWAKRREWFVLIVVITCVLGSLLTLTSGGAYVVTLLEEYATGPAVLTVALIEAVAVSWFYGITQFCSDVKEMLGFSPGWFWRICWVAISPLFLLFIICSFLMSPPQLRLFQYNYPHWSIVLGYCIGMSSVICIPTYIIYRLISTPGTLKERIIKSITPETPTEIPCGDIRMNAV
T2 sequence (Q05941 23-502): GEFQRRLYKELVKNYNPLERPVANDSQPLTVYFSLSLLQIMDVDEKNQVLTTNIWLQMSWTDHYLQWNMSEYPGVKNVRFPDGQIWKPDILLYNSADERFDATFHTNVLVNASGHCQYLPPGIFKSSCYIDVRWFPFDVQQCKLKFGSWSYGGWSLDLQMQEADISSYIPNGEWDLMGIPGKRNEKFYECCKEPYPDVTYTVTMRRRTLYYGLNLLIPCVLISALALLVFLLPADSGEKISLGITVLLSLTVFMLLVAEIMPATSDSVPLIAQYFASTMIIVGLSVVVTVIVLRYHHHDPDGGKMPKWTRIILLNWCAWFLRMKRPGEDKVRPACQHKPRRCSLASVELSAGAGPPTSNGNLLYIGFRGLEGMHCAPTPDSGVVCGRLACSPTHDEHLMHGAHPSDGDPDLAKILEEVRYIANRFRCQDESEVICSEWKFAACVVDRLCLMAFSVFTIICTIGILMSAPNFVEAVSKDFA

As for `O=S1(=O)C(C2=CC3CCC(C2)N3)=Cc2ccccc21` (racemic) [Compound 1, (±)-3-(2-Benzo[b]thiophenyl-1,1-dioxide)-8-H-8-azabicyclo[3.2.1]oct-2-ene fumaric acid salt], the concentration for half-maximal inhibition (IC50) against serotonin transporter came to 190 nM.
Take `CN1C2C=C(C3=Cc4ccccc4S3(=O)=O)CC1CC2` (racemic) [Compound 2, (±)-3-2-Benzo[b]thiophenyl-1,1-dioxide)-8-methyl-8-azabicyclo[3.2.1]oct-2-ene fumaric acid salt]: the IC50 on serotonin transporter came to 660 nM; in experiment [1], 18 nM.
On to `C=CCN1C2C=C(C3=Cc4ccccc4S3(=O)=O)CC1CC2` (racemic) [Compound 3, (±)-3-(2-Benzo[b]thiophenyl-1,1-dioxide)-8-allyl-8-azabicyclo[3.2.1]oct-2-ene], for which the IC50 in experiment [1] (rat cerebral cortex homogenate, 2 nM 3H-α-bungarotoxine, 2 hours at 37° C, read-out: Inhibition of 3H-α-Bungarotoxine Binding IC50) came to 850 nM.
